biological target: T1, hNLRP3 (Homo sapiens, UniProt Q96P20); assay: IL-1β production in PMA-differentiated THP-1 cells stimulated with gramicidin (hTHP-1 assay); format: cell-based; conditions: read-out: NLRP3 Antagonist, hNLRP3 (THP-1, IL-1b) Normalized: GeoMean IC50
T1 construct: THP-1 cells were purchased from the American Type Culture Collection; host or cells: THP-1 cells, PMA-differentiated, stimulated with gramicidin
Description: Procedure 1: IL-1β Production in PMA-Differentiated THP-1 Cells Stimulated with Gramicidin.
THP-1 cells were purchased from the American Type Culture Collection and sub-cultured according to instructions from the supplier. […] Prior to the experiment, compounds were dissolved in dimethyl sulfoxide (DMSO) to generate a 30 mM stock. […] DMSO was backfilled in the plate to achieve a final DMSO assay concentration of 0.37%. The plate was then sealed and stored at room temperature until required.
THP-1 cells were treated with PMA (Phorbol 12-myristate 13-acetate) (20 ng/ml) for 16-18 hours. On the day of the experiment the media was removed and adherent cells were detached with trypsin for 5 minutes.
Procedure 2: IL-1β Production in PMA-Differentiated THP-1 Cells Stimulated with Gramicidin.
THP-1 cells were purchased from the American Type Culture Collection and sub-cultured according to instructions from the supplier. […] Prior to the experiment THP-1 were treated with PMA (Phorbol 12-myristate 13-acetate) (20 ng/ml) for 16-18 hours. Compounds were dissolved in dimethyl sulfoxide (DMSO) to generate a 30 mM stock. On the day of the experiment the media was removed and adherent cells were detached with trypsin for 5 minutes. […] Final DMSO concentration was at 0.37%. Cells were incubated with compounds for 1 hour and then stimulated with gramicidin (5 μM) (Enzo) for 2 hours. Plates were then centrifuged at 340 g for 5 min. Cell free supernatant (40 μL) was collected using a 96-channel PlateMaster (Gilson) and the production of IL-1β was evaluated by HTRF (cisbio).
1. Experimental procedure
1.2 Compound Preparation • Prepare the 3-fold serial dilution of the compounds with DMSO in a 384-well LDV Microplate using TECAN EVO system to generate the compound source plate with 10 concentrations. Top concentration is 30 mM. FIG. 5 depicts the layout of the microplate.
FIG. 5 depicts the layout of the plates: HC: 100 μM CRID3 (MCC950)+5 μM gramicidin LC: 5 μM Gramicidin.
1.5 IL-1β Detection • 1) Homogenize the 5× diluent #5 with a vortex and add 1 volume of stock solution in 4 volumes of distilled water. • 2) Thaw 20× stock solution of anti-IL1β-Cryptate-antibody and anti-IL1β XL-antibody. […] 2. Data Analysis: • 1.

T1 sequence (Q96P20 whole entry): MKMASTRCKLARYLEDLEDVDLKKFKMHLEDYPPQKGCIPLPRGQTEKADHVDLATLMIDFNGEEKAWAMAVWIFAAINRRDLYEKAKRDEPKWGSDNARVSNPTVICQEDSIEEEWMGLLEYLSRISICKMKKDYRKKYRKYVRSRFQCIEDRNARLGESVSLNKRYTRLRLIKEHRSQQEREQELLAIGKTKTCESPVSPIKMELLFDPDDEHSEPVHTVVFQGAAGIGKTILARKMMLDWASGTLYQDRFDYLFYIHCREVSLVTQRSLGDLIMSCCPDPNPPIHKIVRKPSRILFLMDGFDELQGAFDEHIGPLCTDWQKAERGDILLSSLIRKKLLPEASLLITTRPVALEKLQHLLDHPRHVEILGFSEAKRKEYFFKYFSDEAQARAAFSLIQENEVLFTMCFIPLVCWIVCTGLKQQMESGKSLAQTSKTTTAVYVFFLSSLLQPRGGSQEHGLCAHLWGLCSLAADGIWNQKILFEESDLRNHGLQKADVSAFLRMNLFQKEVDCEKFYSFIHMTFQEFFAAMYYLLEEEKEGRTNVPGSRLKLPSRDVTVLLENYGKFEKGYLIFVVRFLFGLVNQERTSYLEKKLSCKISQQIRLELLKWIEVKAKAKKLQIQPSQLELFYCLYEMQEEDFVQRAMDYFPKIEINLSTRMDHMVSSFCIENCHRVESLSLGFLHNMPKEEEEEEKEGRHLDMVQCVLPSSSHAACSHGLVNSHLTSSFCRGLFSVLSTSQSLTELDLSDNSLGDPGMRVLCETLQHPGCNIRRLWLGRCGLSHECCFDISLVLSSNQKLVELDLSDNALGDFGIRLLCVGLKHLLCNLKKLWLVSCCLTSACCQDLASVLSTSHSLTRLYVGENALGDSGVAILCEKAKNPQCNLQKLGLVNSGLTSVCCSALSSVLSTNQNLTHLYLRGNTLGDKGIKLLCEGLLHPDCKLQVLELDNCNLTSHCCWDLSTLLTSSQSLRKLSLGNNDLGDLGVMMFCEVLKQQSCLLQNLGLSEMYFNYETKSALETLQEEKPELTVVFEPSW

Row | IC50 [µM] | Compound
1 | > 30 | O=C(N=S1(=O)NCc2ccccc21)Nc1c2c(cc3c1CCC3)CCC2 (single isomer, unassigned) [Compound 130a, 1-(1,2,3,5,6,7-hexahydro-s-indacen-4-yl)-3-[(1S or 1R)-1-oxo-2,3-dihydro-1-^λ-6,2-benzothiazol-1-ylidene]urea]
2 | 1 to 5 | O=C1CCS(=O)(=NC(=O)Nc2c3c(cc4c2CCC4)CCC3)N1 (single isomer, unassigned) [Compound 131a, (R or S)-1-(1,2,3,5,6,7-hexahydro-s-indacen-4-yl)-3-(1-oxido-3-oxo-1l6-isothiazolidin-1-ylidene)urea]
3 | 1 to 5 | O=C(N=S1(=O)CC2(COC2)C(=O)N1)Nc1c2c(cc3c1CCC3)CCC2 (single isomer, unassigned) [Compound 132a, (S or R)-1-(1,2,3,5,6,7-hexahydro-s-indaccn-4-yl)-3-(6-oxido-8-oxo-2-oxa-6l6-thia-7-azaspiro[3.4]octan-6-ylidene)urea]
4 | 5 to 30 | O=C(N=S1(=O)CC2(COC2)C(=O)N1)Nc1c2c(cc3c1CCC3)CCC2 (single isomer, unassigned) [Compound 132b, (R or S)-1-(1,2,3,5,6,7-hexahydro-s-indacen-4-yl)-3-(6-oxido-8-oxo-2-oxa-6l6-thia-7-azaspiro[3.4]octan-6-ylidene)urea]
5 | 5 to 30 | CN(C)Cc1ccc2c(c1)S(=O)(=NC(=O)Nc1c3c(cc4c1CCC4)CCC3)NC2 (single isomer, unassigned) [Compound 133a, (R or S)-1-(6-((dimethylamino)methyl)-1-oxido-2,3-dihydro-1l4-benzo[d]isothiazol-1-ylidene)-3-(1,2,3,5,6,7-hexahydro-s-indacen-4-yl)urea]
6 | > 30 | CN(C)Cc1ccc2c(c1)S(=O)(=NC(=O)Nc1c3c(cc4c1CCC4)CCC3)NC2 (single isomer, unassigned) [Compound 133b, (S or R)-1-(6-((dimethylamino)methyl)-1-oxido-2,3-dihydro-1l4-benzo[d]isothiazol-1-ylidene)-3-(1,2,3,5,6,7-hexahydro-s-indacen-4-yl)urea]
7 | > 30 | COC(=O)c1ccc2c(c1)S(=O)(=NC(=O)Nc1c3c(cc4c1CCC4)CCC3)NC2=O (single isomer, unassigned) [Compound 134a, methyl (R or S)-1-(((1,2,3,5,6,7-hexahydro-s-indacen-4-yl)carbamoyl)imino)-3-oxo-2,3-dihydro-1H-1l4-benzo[d]isothiazole-6-carboxylate 1-oxide]
8 | 5 to 30 | COC(=O)c1ccc2c(c1)S(=O)(=NC(=O)Nc1c3c(cc4c1CCC4)CCC3)NC2=O (single isomer, unassigned) [Compound 134b, methyl (S or R)-1-(((1,2,3,5,6,7-hexahydro-s-indacen-4-yl)carbamoyl)imino)-3-oxo-2,3-dihydro-1H-1l4-benzo[d]isothiazole-6-carboxylate 1-oxide]
9 | 0.2 to 1 | CC(C)(O)c1ccc2c(c1)S(=O)(=NC(=O)Nc1c3c(nc4c1CCC4)CCC3)NC2=O (single isomer, unassigned) [Compound 136, (S or R)-1-(1,2,3,5,6,7-hexahydrodicyclopenta[b,e]pyridin-8-yl)-3-(6-(2-hydroxypropan-2-yl)-1-oxido-3-oxo-2,3-dihydro-1l4-benzo[d]isothiazol-1-ylidene)urea]
10 | 0.2 to 1 | CC(C)(O)c1ccc2c(c1)S(=O)(=NC(=O)Nc1c3c(nc4c1CCC4(C)C)CCC3)NC2=O (single isomer, unassigned) [Compound 137, (S or R)-1-(3,3-dimethyl-1,2,3,5,6,7-hexahydrodicyclopenta[b,e]pyridin-8-yl)-3-(6-(2-hydroxypropan-2-yl)-1-oxido-3-oxo-2,3-dihydro-1l4-benzo[d]isothiazol-1-ylidene)urea]
11 | 0.2 to 1 | Cc1c(C2CC2)nc2c(c1NC(=O)N=S1(=O)NC(=O)c3ccc(C(C)(C)O)cc31)CCC2 (single isomer, unassigned) [Compound 138, (S or R)-1-(2-cyclopropyl-3-methyl-6,7-dihydro-5H-cyclopenta[b]pyridin-4-yl)-3-(6-(2-hydroxypropan-2-yl)-1-oxido-3-oxo-2,3-dihydro-1l4-benzo[d]isothiazol-1-ylidene)urea]
12 | > 30 | O=C(N=S1(=O)CC2(CN1)COC2)Nc1c2c(cc3c1CCC3)CCC2 (single isomer, unassigned) [Compound 139a, (S or R)-1-(1,2,3,5,6,7-hexahydro-s-indacen-4-yl)-3-(6-oxido-2-oxa-6l6-thia-7-azaspiro[3.4]octan-6-ylidene)urea]
13 | 1 to 5 | CC(O)(CO)c1ccc2c(c1)S(=O)(=NC(=O)Nc1c3c(cc4c1CCC4)CCC3)NC2=O (single isomer, unassigned) [Compound 208a, 1-((1R or S)-6-(1,2-dihydroxypropan-2-yl)-1-oxido-3-oxo-2,3-dihydro-1l4-benzo[d]isothiazol-1-ylidene)-3-(1,2,3,5,6,7-hexahydro-s-indacen-4-yl)urea]
14 | 0.04 to 0.2 | CC(O)(CO)c1ccc2c(c1)S(=O)(=NC(=O)Nc1c3c(cc4c1CCC4)CCC3)NC2=O (single isomer, unassigned) [Compound 208b, 1-((1S or R)-6-(1,2-dihydroxypropan-2-yl)-1-oxido-3-oxo-2,3-dihydro-1l4-benzo[d]isothiazol-1-ylidene)-3-(1,2,3,5,6,7-hexahydro-s-iadacen-4-yl)urea]
15 | 5 to 30 | O=C(N=S1(=O)NC(=O)c2ccc(-n3cccn3)cc21)Nc1c2c(cc3c1CCC3)CCC2 (single isomer, unassigned) [Compound 211a, (S or R)-1-(1,2,3,5,6,7-hexahydro-s-indacen-4-yl)-3-(1-oxido-3-oxo-6-(1H-pyrazol-1-yl)-2,3-dihyclro-1l4-benzo[d]isothiazol-1-ylidene)urea]
16 | > 30 | O=C(N=S1(=O)NC(=O)c2ccc(-n3cccn3)cc21)Nc1c2c(cc3c1CCC3)CCC2 (single isomer, unassigned) [Compound 211b, (R or S)-1-(1,2,3,5,6,7-hexahydro-s-indacen-4-yl)-3-(1-oxido-3-oxo-6-(1H-pyrazol-1-yl)-2,3-dihydro-1l4-benzo[d]isothiazol-1-ylidene)urea]
17 | 1 to 5 | O=C(N=S1(=O)NC(=O)c2cccnc21)Nc1c2c(cc3c1CCC3)CCC2 (single isomer, unassigned) [Compound 223a, (S or S)-1-(1,2,3,5,6,7-hexahydro-s-indacen-4-yl)-3-(1-oxido-3-oxo-2,3-dihydro-1l4-isothiazolo[5,4-b]pyridin-1-ylidene)urea]
18 | 5 to 30 | O=C(N=S1(=O)NC(=O)c2cccnc21)Nc1c2c(cc3c1CCC3)CCC2 (single isomer, unassigned) [Compound 223b, (R or S)-1-(1,2,3,5,6,7-hexahydro-s-indacen-4-yl)-3-(1-oxido-3-oxo-2,3-dihydro-1l4-isothiazolo[5,4-b]pyridin-1-ylidene)urea]
19 | 0.2 to 1 | O=C(N=S1(=O)CC(Cc2ccccc2)C(=O)N1)Nc1c2c(cc3c1CCC3)CCC2 (single isomer, unassigned) [Compound 249a, 1-((1R,4S or 4R)-4-benzyl-1-oxido-3-oxo-1l6-isothiazolidin-1-ylidene)-3-(1,2,3,5,6,7-hexahydro-s-indacen-4-yl)urea]
20 | 1 to 5 | O=C1CC(Cc2ccccc2)S(=O)(=NC(=O)Nc2c3c(cc4c2CCC4)CCC3)N1 (centres unmarked) [Compound 101, 1-(5-benzyl-1-oxido-3-oxo-1l6-isothiazolidin-1-ylidene)-3-(1,2,3,5,6,7-hexahydro-s-indacen-4-yl)urea]
21 | 0.2 to 1 | CC1(C)CS(=O)(=NC(=O)Nc2c3c(cc4c2CCC4)CCC3)NC1=O (centres unmarked) [Compound 102, 1-(4,4-dimethyl-1-oxido-3-oxo-1l6-isothiazolidin-1-ylidene)-3-(1,2,3,5,6,7-hexahydro-s-indacen-4-yl)urea]
22 | 1 to 5 | O=C(N=S1(=O)NC(=O)c2ccc(Br)cc21)Nc1c2c(cc3c1CCC3)CCC2 (centres unmarked) [Compound 103, 1-(6-bromo-1-oxido-3-oxo-2,3-dihydro-1l4-benzo[d]isothiazol-1-ylidene)-3-(1,2,3,5,6,7-hexahydro-s-indacen-4-yl)urea]
23 | > 30 | CC(C)c1cc2c(c(C(C)C)c1CC(=O)N=S1(=O)NC(=O)c3ccc(C(C)(C)O)cc31)COC2 (centres unmarked) [Compound 104, 2-(4,6-diisopropyl-1,3-dihydroisobenzofuran-5-yl)-N-(6-(2-hydroxypropan-2-yl)-1-oxido-3-oxo-2,3-dihydro-1l4-benzo[d]isothiazol-1-ylidene)acetamide]
